Data taken from patent US12391737B2, “Soluble NPY2 receptor agonists” (Boehringer Ingelheim International GmbH, priority 2020, dated 2025).

Test: Solubility determination
Settings: for Sol6: pH 6; for Sol7: pH 7
Experimental: Peptides (as TFA salts) were weighed out in a filter unit (Mini-UniPrep Syringeless Filter 0.45 μm, Whatman), and 0.1 M sodium diphosphate buffer at pH 6.4 or 7.0 was added to achieve 10 mg/ml final concentration. The peptide was dissolved by shaking the filter unit horizontally at 600 rpm for 2 hours at room temperature. The sample was filtered, to remove any insoluble particles and diluted to 1 mg/ml in 50% acetonitrile. The control was prepared by weighing out the corresponding peptide and dissolving it in 50% acetonitrile to final concentration of 1 mg/ml. Both the control and sample were analysed with reversed phase chromatography. The area under the peak of the sample was compared to the control and the solubility was calculated based on that ratio.
The pH was measured and recorded for each sample.
System: UltiMate 3000 UPLC, ThermoFisher
Mobile phase A: 5% acetonitrile, 95% water, 0.03% trifluoracetic acid.
Mobile phase B: 95% acetonitrile, 5% water, 0.03% trifluoracetic acid.
Gradient: 0-100% mobile phase B (2 mins.)
Column temperature: 50° C.

SMILES	Sol6 [mg/mL]	Sol7 [mg/mL]
CC(C)CC(=O)N[C@@H](C)C(=O)N1CCC[C@H]1C(=O)N[C@@H](CCC(=O)O)C(=O)N[C@@H](CCCCNC(=O)CCCCCNC(=O)CC[C@H](NC(=O)CCCCCCCCCCCCCCCCC(=O)O)C(=O)O)C(=O)N1CCC[C@H]1C(=O)N[C@@H](CCC(=O)O)C(=O)N[C@@H](C)C(=O)N[C@@H](CC(=O)O)C(=O)N[C@@H](C)C(=O)N[C@@H](CCC(=O)O)C(=O)N1CCC[C@H]1C(=O)N[C@@H](CCC(=O)O)C(=O)N[C@@H](CCC(=O)O)C(=O)N[C@@H](CC(C)C)C(=O)N[C@@H](CCC(N)=O)C(=O)N[C@@H](CCCNC(=N)N)C(=O)N[C@@H](Cc1ccc(O)cc1)C(=O)N[C@@H](Cc1ccc(O)cc1)C(=O)N[C@H](C(=O)N[C@@H](C)C(=O)N[C@@H](CC(C)C)C(=O)N[C@@H](CCCNC(=N)N)C(=O)N[C@@H](Cc1c[nH]cn1)C(=O)N[C@@H](Cc1ccc(O)cc1)C(=O)N[C@@H](Cc1ccc(O)cc1)C(=O)N[C@@H](CC(N)=O)C(=O)N[C@@H](Cc1c[nH]c2ccccc12)C(=O)N[C@@H](CC(C)C)C(=O)N[C@H](C(=O)N[C@@H](CCCNC(=N)N)C(=O)N[C@@H](CCC(N)=O)C(=O)N[C@@H](CCCNC(=N)N)C(=O)N[C@@H](Cc1ccc(O)cc1)C(N)=O)[C@@H](C)O)C(C)C [Compound 6, N{alpha-4}-(3-methylbutanoyl)-N{epsilon-7}-(6-[(4S)-4-carboxy-4-(17-carboxyheptadecanamido)butanamido]hexanoyl)[4A,7K,9E,10A,13E,18Q,22V,23A,28Y,30W,31L]-hPYY(4-36)]	9.6	10.0
CC(C)CC(=O)N[C@@H](C)C(=O)N1CCC[C@H]1C(=O)N[C@@H](C)C(=O)N[C@@H](CCCCNC(=O)CCCCCNC(=O)CC[C@H](NC(=O)CCCCCCCCCCCCCCCCC(=O)O)C(=O)O)C(=O)N1CCC[C@H]1C(=O)N[C@@H](CCC(=O)O)C(=O)N[C@@H](C)C(=O)N[C@@H](C)C(=O)N[C@@H](C)C(=O)N[C@@H](CCC(=O)O)C(=O)N1CCC[C@H]1C(=O)N[C@@H](CCC(=O)O)C(=O)N[C@@H](CCC(=O)O)C(=O)N[C@@H](CC(C)C)C(=O)N[C@@H](CCC(N)=O)C(=O)N[C@@H](CCCNC(=N)N)C(=O)N[C@@H](Cc1ccc(O)cc1)C(=O)N[C@@H](Cc1ccc(O)cc1)C(=O)N[C@H](C(=O)N[C@@H](C)C(=O)N[C@@H](CC(C)C)C(=O)N[C@@H](CCCNC(=N)N)C(=O)N[C@@H](Cc1c[nH]cn1)C(=O)N[C@@H](Cc1ccc(O)cc1)C(=O)N[C@@H](Cc1ccc(O)cc1)C(=O)N[C@@H](CC(N)=O)C(=O)N[C@@H](Cc1c[nH]c2ccccc12)C(=O)N[C@@H](CC(C)C)C(=O)N[C@H](C(=O)N[C@@H](CCCNC(=N)N)C(=O)N[C@@H](CCC(N)=O)C(=O)N[C@@H](CCCNC(=N)N)C(=O)N[C@@H](Cc1ccc(O)cc1)C(N)=O)[C@@H](C)O)C(C)C [Compound 10, N{alpha-4}-(3-methylbutanoyl)-N{epsilon-7}-(6-[(4S)-4-carboxy-4-(17-carboxyheptadecanamido)butanamido]hexanoyl)[4A,6A,7K,9E,10A,11A,13E,18Q,22V,23A,28Y,30W,31L]-hPYY(4-36)]	0.0	0.0
CC(C)CC(=O)N[C@@H](C)C(=O)N1CCC[C@H]1C(=O)N[C@@H](C)C(=O)N[C@@H](CCCCNC(=O)CCCCCNC(=O)CC[C@H](NC(=O)CCCCCCCCCCCCCCCCC(=O)O)C(=O)O)C(=O)N1CCC[C@H]1C(=O)N[C@@H](CCC(=O)O)C(=O)N[C@@H](CCC(=O)O)C(=O)N[C@@H](CC(=O)O)C(=O)N[C@@H](C)C(=O)N[C@@H](CO)C(=O)N1CCC[C@H]1C(=O)N[C@@H](CCC(=O)O)C(=O)N[C@@H](CCC(=O)O)C(=O)N[C@@H](CC(C)C)C(=O)N[C@@H](CCC(N)=O)C(=O)N[C@@H](CCCNC(=N)N)C(=O)N[C@@H](Cc1ccc(O)cc1)C(=O)N[C@@H](Cc1ccc(O)cc1)C(=O)N[C@H](C(=O)N[C@@H](CO)C(=O)N[C@@H](CC(C)C)C(=O)N[C@@H](CCCNC(=N)N)C(=O)N[C@@H](Cc1c[nH]cn1)C(=O)N[C@@H](Cc1ccc(O)cc1)C(=O)N[C@@H](Cc1ccc(O)cc1)C(=O)N[C@@H](CCC(N)=O)C(=O)N[C@@H](Cc1c[nH]c2ccccc12)C(=O)N[C@@H](CC(C)C)C(=O)N[C@H](C(=O)N[C@@H](CCCNC(=N)N)C(=O)N[C@@H](CCC(N)=O)C(=O)N[C@@H](CCCNC(=N)N)C(=O)N[C@@H](Cc1ccc(O)cc1)C(N)=O)[C@@H](C)O)C(C)C [Compound 78, N{alpha-4}-(3-methylbutanoyl)-N{epsilon-7}-(6-[(4S)-4-carboxy-4-(17-carboxyheptadecanamido)butanamido]hexanoyl)-[4A,6A,7K,9E,18Q,22V,28Y,29Q,30W,31L]-hPYY(4-36)]	8.1	7.6
CC(C)CC(=O)N[C@@H](C)C(=O)N1CCC[C@H]1C(=O)N[C@@H](CCC(=O)O)C(=O)N[C@@H](CCCCNC(=O)CCCCCNC(=O)CC[C@H](NC(=O)CCCCCCCCCCCCCCCCC(=O)O)C(=O)O)C(=O)N1CCC[C@H]1C(=O)N[C@@H](CCC(=O)O)C(=O)N[C@@H](CCC(=O)O)C(=O)N[C@@H](CC(=O)O)C(=O)N[C@@H](C)C(=O)N[C@H](C(=O)N1CCC[C@H]1C(=O)N[C@@H](CCC(=O)O)C(=O)N[C@@H](CCC(=O)O)C(=O)N[C@@H](CC(C)C)C(=O)N[C@@H](CCC(N)=O)C(=O)N[C@@H](CCCNC(=N)N)C(=O)N[C@@H](Cc1ccc(O)cc1)C(=O)N[C@@H](CCC(N)=O)C(=O)N[C@H](C(=O)N[C@@H](CO)C(=O)N[C@@H](CC(C)C)C(=O)N[C@@H](CCCNC(=N)N)C(=O)N[C@@H](Cc1c[nH]cn1)C(=O)N[C@@H](Cc1ccc(O)cc1)C(=O)N[C@@H](Cc1ccc(O)cc1)C(=O)N[C@@H](CC(N)=O)C(=O)N[C@@H](Cc1c[nH]c2ccccc12)C(=O)N[C@@H](CC(C)C)C(=O)N[C@H](C(=O)N[C@@H](CCCNC(=N)N)C(=O)N[C@@H](CCC(N)=O)C(=O)N[C@@H](CCCNC(=N)N)C(=O)N[C@@H](Cc1ccc(O)cc1)C(N)=O)[C@@H](C)O)C(C)C)[C@@H](C)O [Compound 115, N{alpha-4}-(3-methylbutanoyl)-N{epsilon-7}-(6-[(4S)-4-carboxy-4-(17-carboxyheptadecanamido)butanamido]hexanoyl)-[4A,7K,9E,13T,18Q,21Q,22V,28Y,30W,31L]-hPYY(4-36)]	9.0	8.5
